Measurements as given in ChEMBL document CHEMBL1649461, “Fitness cost of VanA-type vancomycin resistance in methicillin-resistant Staphylococcus aureus” (2009).
In brackets after ≈: the same amount, converted by molar mass.

What was measured:
Format in all cases: functional
Staphylococcus aureus [1] = test: Antimicrobial activity against VanA-type vancomycin-resistant and methicillin-resistant Staphylococcus aureus 6 by broth dilution method
Staphylococcus aureus [2] = test: Antimicrobial activity against VanA-type vancomycin-resistant and methicillin-resistant Staphylococcus aureus 5 by broth dilution method
Staphylococcus aureus [3] = test: Antimicrobial activity against methicillin-resistant Staphylococcus aureus HIP11713 by broth dilution method
Staphylococcus aureus [4] = test: Antimicrobial activity against VanA-type vancomycin-resistant and methicillin-resistant Staphylococcus aureus 1 by broth dilution method

| Compound | MIC (Staphylococcus aureus [1]) [µg/mL] | MIC (Staphylococcus aureus [2]) [µg/mL] | MIC (Staphylococcus aureus [3]) [µg/mL] | MIC (Staphylococcus aureus [4]) [µg/mL] |
| --- | --- | --- | --- | --- |
| CC(=O)N[C@@H]1[C@H](Oc2c3cc4cc2Oc2ccc(cc2Cl)[C@@H](O[C@@H]2O[C@@H](CO)[C@@H](O)[C@H](O)[C@@H]2NC(C)=O)[C@@H]2NC(=O)[C@H](NC(=O)[C@@H]4NC(=O)[C@H]4NC(=O)[C@@H](Cc5ccc(c(Cl)c5)O3)NC(=O)[C@H](N)c3ccc(O)c(c3)Oc3cc(O)cc4c3)c3ccc(O)c(c3)-c3c(O[C@H]4O[C@H](CO)[C@@H](O)[C@@H](O)[C@@H]4O)cc(O)cc3[C@@H](C(=O)O)NC2=O)O[C@@H](CO)[C@@H](O)[C@@H]1O | 128 (≈ 72.4 µM) | 64 (≈ 36.2 µM) | 1 (≈ 0.566 µM) | 256 (≈ 145 µM) |
| CN[C@H](CC(C)C)C(=O)N[C@H]1C(=O)N[C@@H](CC(N)=O)C(=O)N[C@H]2C(=O)N[C@H]3C(=O)N[C@H](C(=O)N[C@H](C(=O)O)c4cc(O)cc(O)c4-c4cc3ccc4O)[C@H](O)c3ccc(c(Cl)c3)Oc3cc2cc(c3O[C@@H]2O[C@H](CO)[C@@H](O)[C@H](O)[C@H]2O[C@H]2C[C@](C)(N)[C@H](O)[C@H](C)O2)Oc2ccc(cc2Cl)[C@H]1O [VANCOMYCIN] | 1020 (≈ 707 µM) | 1020 (≈ 707 µM) | – | 2050 (≈ 1410 µM) |
